Experimental data reported in US6291247A, “Methods of screening for factors that disrupt neurotrophin conformation and reduce neurotrophin biological activity” (priority 1996, dated 2001).
Bridges are numbered along the chain shown (N, C = ends). Where no end group is shown, it is not given here.

Key:
[1] = tested on: PC12 cells; assay: Toxicity to PC12 cells; type: cell-based, rat
[2] = tested on: PC12 cells; assay: Toxicity to PC12 cells; type: cell-based, rat; settings: 100 μM
Procedure: Effects of divalent ions on NGF mediated survival and toxicity was evaluated using a colorimetric assay for the lysosomal enzyme acid phosphatase to determine cell number (Connolly, D. T., Knight, M. B., Harakas, N. K, Wittwer, A. J. & Feder, J. Determination of the number of endothelial cells in culture using an acid phosphatase assay. Anal. Biochem. 152, 136-140 (1986); Ueda, Y., Walsh, E., Nakanishi H. & Yoshida, K. A. colorometric assay method for the evaluation of neurotrophic activity in vitro. Neurosci. Lett. 165, 203-207 (1994)). […] To evaluate toxicity, the cells were seeded and maintained without NGF in RPMI with 10% heat inactivated donor horse serum and 5% fetal calf serum in the presence of additives. Loss in viable cell number was determined and expressed as a percent of control. NGF rescues PC12 cells from cell death in serum-free medium(Greene, L. A. Nerve growth factor prevents the death and stimulates neuronal differentiation of clonal PC12 pheochromocytoma cells in serum-free medium. J. Cell Biol. 78, 747-755 (1978)). NGF-dependent survival was assessed by harvesting PC12 cells in balanced salt solution followed with washing by 4 cycles of suspension and centrifugation in serum-free RPMI prior to seeding in 96 well plates. After incubation with additives, medium was removed from the wells and cells washed once with 200 μl PBS. Buffer containing 0.1M sodium acetate pH 5.5, 0.1% Triton X-100 and 10 mM p-nitrophenyl phosphate (Sigma 104 phosphatase substrate) was added to each well (100 μl). Plates were incubated at 37° C. for 3 hours. The reaction was stopped by the addition of 10 μl/well of 1N sodium hydroxide and the color development measured at 405 nm using a microplate reader. The relationship between cell number and enzyme activity was linear over the range 1000 to 15,000 cells.
To explore the ability of other transition metals to influence the biological activities of NGF, a series of cations known to mimic in certain respects the binding of zinc to proteins were tested. […] For this reason these ions were not tested in NGF- dependant growth phenomena. […] As these studies appeared to indicate potentially complex results upon metal ions binding to NGF, a receptor crosslinking system where specific receptor types could be identified was utilized.

[3] = target: T1, NGF (Mus musculus, UniProt P01139); assay: Cross-linking of NGF protomers in a cell-free system (Example 6); type: biochemical; settings: R11 analogues, concentration not given
T1 construct: homodimer
T1 sequence (P01139 122-239): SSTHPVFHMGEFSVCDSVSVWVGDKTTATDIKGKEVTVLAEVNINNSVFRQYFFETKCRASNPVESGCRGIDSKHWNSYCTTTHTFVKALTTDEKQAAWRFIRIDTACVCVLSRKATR

[4] = tested on: dorsal root ganglion (DRG) neurons; assay: NGF-dependent neurite growth of ED8 chick DRG neurons (FIG. 6, Terasaki plates); type: cell-based
Procedure: FIG. 6 is a graph showing the ability of R11 to inhibit the activity of NGF in vitro using a biological assay system. […] Dissociated cells enriched for sensory neurons were prepared from embryonic day 8 (ED8) chick dorsal root ganglion (DRG) as described (Sutter et al., J. Biol. Chem. 254: 5972-5982 (1979)). Neurons were seed into wells of Terasaki plates treated sequentially with poly-D-lysine and laminin at a density of 800-1000 cells/well in "synthetic" Dulbecco's modified Eagle medium (Bottenstein et al., Proc. Natl. Acad. Sci. USA 76: 514-517 (1979)) containing 1% fetal calf serum and NGF at […]. The cells were incubated with the additives indicated at 37° C. in a 5% CO2 atmosphere At 18-20 hours, the cells were fixed in 4% formaldehyde in phosphate-buffered saline and scored for neurite growth. The cells on the entire lower horizontal surface of the well were counted using an inverted microscope fitted with phase contrast optics. A neurite was scored if its caliber from origin to terminal was constant and its length was equal to or greater than 1.5 cell body diameters. Neurite growth was corrected for background (no NGF) growth in the presence and absence of peptide.
Such a profile is not typical of a competitive inhibitor. That is, a different dose response profile would be expected if R11 were simply competing with NGF for binding to a receptor. Neither of the less constrained synthetic Intermediates of R11, i.e., R11 (linear) or R11 (monocyclic), was as effective in blocking NGF-dependent neurite growth concentrations up to 200 μM.

[5] = tested on: p75; assay: Affinity cross-linking of 125I-NGF to p75 on PC12 cells; type: binding, rat; settings: for Inhibition of p75 Interaction: 200 μM peptide, 0.1 nM 125I-NGF, PC12 cells
Procedure: The ability of the peptides under study to interfere with binding of NGF to NGF receptors was evaluated by analysis of inhibition of the chemical cross-linking of ^251 I-NGF to the common neurotrophin receptor p75 (Chao, J. Neurobiol. 25:1373-1385 (1994)) and the specific NGF receptor TrkA (Barbacid, J. Neurobiol. 25: 1386-1403 (1994)). Immunoprecipitation and polyacrylamide gel electrphoresis of cross linked receptors allowed identification of both receptors, as shown in FIG. 7A. […] At concentrations of 200 μM, neither R11(l) nor R11(m) were able to inhibit greater than 50% of the observed ^125 I-labelling.
The ability of the peptides derived from the 68-58/108-110 region of NGF to antagonize NGF interaction with the p75 and TrkA receptors was determined The peptides tested were bicyclic (BC) 68-58/108-110, cyclic (C) 68-58/108-110, and linear (L) 68-58/108-110, each of which are illustrated in FIGS. 2 and 5D
Receptor cross-linking studies were performed on PC12 rat pheochromocytoma cells (ATCC CRL 1721; Greene et al., Proc. Natl. Acad. Sci. USA 73: 2424-2432 (1976)) which were maintained in RPMI1640 (Gibco) supplemented with 10% fetal calf serum (Gibco). Cells were harvested by incubation and trituration in Ca^2+ and Mg^2+ free Gey's balanced salt solution, washed and suspended in 10 mM HEPES buffer (pH 7.35) containing 125 mM NaCl, 4.8 mM KCl, 1.3 mM CaCl2, […], 1.2 mM KH2 PO4, 1 g/L sucrose and 1 g/L bovine serum albumin (HEPES Krebs Ringer buffer, HKR buffer) at 10^6 cells/mL. Subsequent procedures were carried out at 4° C. unless otherwise noted.
For receptor crosslinking, ^125 I-NGF was prepared by the method of Sutter et al. (J. Biol. Chem. 254: 5972-5982 (1979)) from NGF isolated from mouse submaxillary gland (as described in Mobley et al., Biochemistry 15:1543 (1976)) obtained from Cedarlane.
[…] Control PC12 cells were incubated in HKR buffer in the presence of ^125 I-NGF only (no NGF peptide).
Receptor proteins were cross-linked with either 0.4 mM bis(sulfosuccinimidyl)suberate (BS^3, Pierce) for TrkA, or a combination of 2 mM […] (EDC) and 2 mM N-hydroxysulfosuccinimide (S-NHS) for p75^NTR as indicated. All cross-linking agents (from Pierce) were dissolved in water and added in 20 μL aliquots and the reaction allowed to proceed for 30 min at 25° C. On completion of the cross-linking reaction, the cells were washed three times in HKR buffer with BSA at 4° C. to remove excess free radiolabelled ligand and reagents. The cells were solubilized in 100 μL SDS sample buffer Samples were separated on a modified Laemmli discontinues acrylamide gel system (Laemmli, Nature 227:680 (1970)) using 4% SDS-PAGE stacking gel and a gradient urea polyacrylamide separating gel ranging from 4.5% acrylamide/18% urea to 7.5% acrylamide/48% urea. The gels were fixed and processed for autoradiography using -70° C. exposure with Kodak XAR film and manual processing (FIG. 7B).
For positive receptor identification, immunoprecipitation studies were performed. Samples of 10^7 cells in 1 mL HKR buffer were cross-linked under the conditions described above, washed in HKR buffer and solubilized in non-denaturing lysis buffer (1% NP40, 10% glycerol, 1 mM phenylmethylsulfonylfluoride, 10 μg/mL leupeptin and 0.5 mM o-vanadate in Tris-buffered saline) (Kaplan et al., Nature 350:1 158-160 (1991)). The solutions were clarified by centrifugation and immunoprecipitated with either mAb 192 (monoclonal antibody for p75; Cedarlane) or rabbit anti-TrkA, which had been raised against a COOH-terminal peptide of TrkA. The ^125 I-NGF cross-linked receptor-antibody complexes were isolated using 50 μL of a 50% solution of rabbit anti-mouse agarose (Sigma; for mAb 192) or protein A-Sepharose (Pharmcia; for anti-Trk) equilibrated in lysis buffer. Immunoprecipitates were washed three times in lysis buffer and the pellets denatured in SDS reducing sample buffer. […]

## [Cd+2] [Cd^2+]
[1]
  Toxicity to PC12 cells in serum-free conditions: toxic to PC12 cells
[2]
  Toxicity (PC12 cell viability): 63 ± 10 % control

## [Co+2] [Co^2+]
[1]
  Toxicity to PC12 cells in serum-free conditions: toxic to PC12 cells
[2]
  Toxicity (PC12 cell viability): 52 ± 14 % control

## [Hg+2] [Hg^2+]
[1]
  Toxicity to PC12 cells in serum-free conditions: toxic to PC12 cells
[2]
  Toxicity (PC12 cell viability): 3 ± 0.8 % control

## BR11: same amino acid composition as R11, except that the CVC domain has been moved to appear at the N-terminus (CVCCRASNPVESGC; disulfide 1-14, 3-4)
[3]
  Cross-linking of NGF promoters (NGF dimer disruption assay): not effective in influencing the crosslinking of NGF promoters
[4]; concentrations of 500 μk (so in the source)
  Inhibition of NGF-mediated neurite growth: did not inhibit NGF-mediated neurite growth

## NH2 -Cys-Gly-Ser-Glu-Val-Pro-Asn-Ser-Ala-Arg-Cys-Cys-Val-Cys-OH (H-CGSEVPNSARCCVC-OH; not fully specified; printed as NH2 -Cys-Gly-Ser-Glu-Val-Pro-Asn-Ser-Ala-Arg-Cys-Cys-Val-Cys-OH; cysteine pairing not given here) [R11(l), linear peptide R11]
[5]; 200 μM
  Inhibition of the observed 125I-labelling (p75): ≤ 50%
[5]; listed as L
  Inhibition of p75 Interaction: no inhibition
[4]; concentrations up to 200 μM
  Blocking of NGF-dependent neurite growth: Neither of the less constrained intermediates R11(l) or R11 (m) were effective

## NH2 -Cys-Gly-Ser-Glu-Val-Pro-Asn-Ser-Ala-Arg-Cys-Cys-Val-Cys-OH (H-CGSEVPNSARCCVC-OH; not fully specified; printed as NH2 -Cys-Gly-Ser-Glu-Val-Pro-Asn-Ser-Ala-Arg-Cys-Cys-Val-Cys-OH; cysteine pairing not given here) [R11(m), monocyclic R11 with a single disulfide bond]
[5]; listed as C
  Inhibition of p75 Interaction: no inhibition

## SR11: identical amino acid composition to R11 except that the eleven N-terminal residues have been inverted to the naturally occurring NGF sequence 58-68 (CRASNPVESGCCVC; disulfide 1-14, 11-12)
[3]
  Cross-linking of NGF promoters (NGF dimer disruption assay): equally etude in reducing crosslinking of NGF promoters as R11
